Measured values published in article PMC10709440, “High-throughput ligand profile characterization in novel cell lines expressing seven heterologous insect olfactory receptors for the detection of volatile plant biomarkers” (Scientific Reports, 2023).
Read-outs that look alike come from different tables or passages of the source.

Tests used:
Drosophila OR49b = target: T1, Drosophila OR49b (Drosophila melanogaster, UniProt Q9V6H2); assay: cell-based; conditions: for activation at 1 µM / activation at 10 µM / activation at 100 µM: HEK293; for Average response: mean of biological replicates
T1 construct: expressed in transfected cells
T1 sequence (Q9V6H2 1-375): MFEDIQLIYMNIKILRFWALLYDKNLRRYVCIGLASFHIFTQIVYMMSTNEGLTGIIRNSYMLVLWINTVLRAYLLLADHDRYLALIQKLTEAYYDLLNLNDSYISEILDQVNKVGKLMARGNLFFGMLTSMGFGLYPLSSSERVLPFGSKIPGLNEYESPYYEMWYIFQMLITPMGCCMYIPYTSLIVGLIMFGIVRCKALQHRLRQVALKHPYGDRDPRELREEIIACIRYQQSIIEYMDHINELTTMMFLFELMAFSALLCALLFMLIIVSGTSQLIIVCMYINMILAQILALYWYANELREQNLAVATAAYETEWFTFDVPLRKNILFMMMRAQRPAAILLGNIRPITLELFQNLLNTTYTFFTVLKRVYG
T1 sequence (Q9VNB5 1-486 partner): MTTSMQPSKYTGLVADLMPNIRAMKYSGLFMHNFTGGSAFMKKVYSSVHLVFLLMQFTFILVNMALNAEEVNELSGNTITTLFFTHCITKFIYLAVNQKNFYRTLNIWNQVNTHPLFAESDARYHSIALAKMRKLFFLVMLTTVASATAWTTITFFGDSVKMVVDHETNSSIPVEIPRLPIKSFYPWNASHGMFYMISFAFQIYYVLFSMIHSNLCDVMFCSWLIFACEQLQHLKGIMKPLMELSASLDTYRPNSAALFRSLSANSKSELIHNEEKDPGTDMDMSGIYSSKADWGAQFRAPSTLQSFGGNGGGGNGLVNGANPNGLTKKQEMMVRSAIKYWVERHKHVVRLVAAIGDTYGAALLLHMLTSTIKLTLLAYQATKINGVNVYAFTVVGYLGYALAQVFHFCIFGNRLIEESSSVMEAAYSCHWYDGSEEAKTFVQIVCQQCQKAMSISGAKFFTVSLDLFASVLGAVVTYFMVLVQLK
Procedure, shortened: (§1)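 HEK293 lines stably expressing each Drosophila OR with GCaMP6, doxycycline-induced (1 μg/mL) 48 or 72 h. Fluorescence recorded 5 s baseline then 30 s after VOC injection at pH 7.3; ΔF=(FMAX−F0)/F0, normalized to 50 µM VUAA1 response per line, triplicate wells averaged; concentration series 0.01–100 μM.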

Drosophila OR71a = target: T2, Drosophila OR71a (Drosophila melanogaster, UniProt Q9VUK5); assay: Calcium ion fluorescence (GCaMP6) assay, OR71a stable HEK293 cell line; type: cell-based; conditions: for activation at 1 µM / activation at 10 µM / activation at 100 µM: HEK293, read-out: OR71a response (VUAA1-normalized response); for Average response: VUAA1-normalized response, mean of biological replicates
T2 construct: expressed in transfected cells
T2 sequence (Q9VUK5 1-378): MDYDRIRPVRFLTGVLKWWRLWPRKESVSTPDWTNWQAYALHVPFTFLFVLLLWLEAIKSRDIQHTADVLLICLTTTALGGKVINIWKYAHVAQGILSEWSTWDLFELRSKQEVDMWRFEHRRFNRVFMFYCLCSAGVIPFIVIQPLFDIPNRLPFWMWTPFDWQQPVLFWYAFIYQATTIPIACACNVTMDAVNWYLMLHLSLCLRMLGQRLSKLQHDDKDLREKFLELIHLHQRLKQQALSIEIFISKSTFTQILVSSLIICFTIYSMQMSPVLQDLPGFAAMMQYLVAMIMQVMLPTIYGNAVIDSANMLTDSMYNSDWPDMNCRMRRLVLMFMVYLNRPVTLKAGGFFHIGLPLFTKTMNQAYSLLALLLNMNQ
T2 sequence (Q9VNB5 1-486 partner): T1 sequence (Q9VNB5 1-486 partner)
Procedure, shortened: as §1

[1] = VOC concentration 1 μM, read-out: OR49b response (VUAA1-normalized response)
[2] = VOC concentration 10 μM, read-out: OR49b response (VUAA1-normalized response)
[3] = VOC concentration 100 μM, read-out: OR49b response (VUAA1-normalized response)
[4] = OR49b cell line, odorant cc. 1 µM
[5] = OR49b cell line, odorant cc. 10 µM
[6] = OR49b cell line, odorant cc. 100 µM
[7] = ligand concentration 1 (unit not given), threshold 0.05, below shown as 0
[8] = ligand concentration 10 (unit not given), threshold 0.05, below shown as 0
[9] = ligand concentration 100 (unit not given), threshold 0.05, below shown as 0
[10] = concentration 1, normalized fluorescence change, values below 0.05 threshold given as 0
[11] = concentration 10, normalized fluorescence change, values below 0.05 threshold given as 0
[12] = concentration 100, normalized fluorescence change, values below 0.05 threshold given as 0

CC(=O)c1ccccc1 [acetophenone]
activation at 1 µM (Drosophila OR49b; 1 μM VOC, 50 μM VUAA1 = 1, read-out: OR49b Average response (VUAA1-normalized)): 0%
activation at 10 µM (Drosophila OR49b; 10 μM VOC, 50 μM VUAA1 = 1, read-out: OR49b Average response (VUAA1-normalized)): 0%
activation at 100 µM (Drosophila OR49b; 100 μM VOC, 50 μM VUAA1 = 1, read-out: OR49b Average response (VUAA1-normalized)): 13%
activation at 1 µM (Drosophila OR49b; [1]): 0%
activation at 10 µM (Drosophila OR49b; [2]): 0%
activation at 100 µM (Drosophila OR49b; [3]): 13%
Average response (Drosophila OR49b; [4]): 0.00
Average response (Drosophila OR49b; [5]): 0.00
Average response (Drosophila OR49b; [6]): 0.13
DF norm AVERAGE OR49b (Drosophila OR49b; [7]): 0
DF norm AVERAGE OR49b (Drosophila OR49b; [8]): 0
DF norm AVERAGE OR49b (Drosophila OR49b; [9]): 0.1277
activation at 1 µM (Drosophila OR71a): 0%
activation at 10 µM (Drosophila OR71a): 0%
activation at 100 µM (Drosophila OR71a): 0%
Average response (Drosophila OR71a; OR71a cell line, cc. 1 µM): 0.00
Average response (Drosophila OR71a; OR71a cell line, cc. 10 µM): 0.00
Average response (Drosophila OR71a; OR71a cell line, cc. 100 µM): 0.00
DF norm AVERAGE OR71a (Drosophila OR71a; [7]): 0
DF norm AVERAGE OR71a (Drosophila OR71a; [8]): 0
DF norm AVERAGE OR71a (Drosophila OR71a; [9]): 0

CC(=O)OCC(C)C [isobutyl acetate]
activation at 1 µM (Drosophila OR49b; [1]): 5%
activation at 10 µM (Drosophila OR49b; [2]): 0%
activation at 100 µM (Drosophila OR49b; [3]): 0%
Average response (Drosophila OR49b; [4]): 0.05
Average response (Drosophila OR49b; [5]): 0.0342
Average response (Drosophila OR49b; [6]): 0.00
DF norm AVERAGE OR49b (Drosophila OR49b; [7]): 0.05093
DF norm AVERAGE OR49b (Drosophila OR49b; [8]): 0
DF norm AVERAGE OR49b (Drosophila OR49b; [9]): 0
activation at 1 µM (Drosophila OR71a): 0%
activation at 10 µM (Drosophila OR71a): 0%
activation at 100 µM (Drosophila OR71a): 0%
Average response (Drosophila OR71a; OR71a cell line, cc. 1 µM): 0.038
Average response (Drosophila OR71a; OR71a cell line, cc. 10 µM): 0.0316
Average response (Drosophila OR71a; OR71a cell line, cc. 100 µM): 0.00
DF norm AVERAGE OR71a (Drosophila OR71a; [7]): 0
DF norm AVERAGE OR71a (Drosophila OR71a; [8]): 0
DF norm AVERAGE OR71a (Drosophila OR71a; [9]): 0

COC(=O)c1ccccc1 [methyl benzoate]
OR49b response (VUAA1-normalized) at 1 μM (Drosophila OR49b; OR49b cell line, VOC concentration 1 μM): 0.13
OR49b response (VUAA1-normalized) at 10 μM (Drosophila OR49b; OR49b cell line, VOC concentration 10 μM): 0.00
OR49b response (VUAA1-normalized) at 100 μM (Drosophila OR49b; OR49b cell line, VOC concentration 100 μM): 0.00
Average response (Drosophila OR49b; [4]): 0.13
Average response (Drosophila OR49b; [5]): 0.00
Average response (Drosophila OR49b; [6]): 0.05
DF norm AVERAGE OR49b (Drosophila OR49b; [7]): 0.1337
DF norm AVERAGE OR49b (Drosophila OR49b; [8]): 0
DF norm AVERAGE OR49b (Drosophila OR49b; [9]): 0
OR71a response (VUAA1-normalized) at 1 μM (Drosophila OR71a; OR71a cell line, VOC concentration 1 μM): 0.00
OR71a response (VUAA1-normalized) at 10 μM (Drosophila OR71a; OR71a cell line, VOC concentration 10 μM): 0.00
OR71a response (VUAA1-normalized) at 100 μM (Drosophila OR71a; OR71a cell line, VOC concentration 100 μM): 0.00
Average response (Drosophila OR71a; OR71a cell line, cc. 1 µM): 0.00
Average response (Drosophila OR71a; OR71a cell line, cc. 10 µM): 0.00
Average response (Drosophila OR71a; OR71a cell line, cc. 100 µM): 0.0121
DF norm AVERAGE OR71a (Drosophila OR71a; [7]): 0
DF norm AVERAGE OR71a (Drosophila OR71a; [8]): 0
DF norm AVERAGE OR71a (Drosophila OR71a; [9]): 0

C=C1CC[C@H]2O[C@]2(C)CC[C@@H]2[C@@H]1CC2(C)C [(-)-caryophyllene oxide]
DF norm AVERAGE OR49b (Drosophila OR49b): 0
activation at 1 µM (Drosophila OR49b; [1]): 0%
activation at 10 µM (Drosophila OR49b; [2]): 0%
activation at 100 µM (Drosophila OR49b; [3]): 0%
Average response (Drosophila OR49b; [4]): 0.00
Average response (Drosophila OR49b; [5]): 0.00
Average response (Drosophila OR49b; [6]): 0.00
activation at 1 µM (Drosophila OR71a): 0%
activation at 10 µM (Drosophila OR71a): 0%
activation at 100 µM (Drosophila OR71a): 7.44%
Average response (Drosophila OR71a; OR71a cell line, cc. 1 µM): 0.00
Average response (Drosophila OR71a; OR71a cell line, cc. 10 µM): 0.00
Average response (Drosophila OR71a; OR71a cell line, cc. 100 µM): 0.0744
DF norm AVERAGE OR71a (Drosophila OR71a; [10]): 0
DF norm AVERAGE OR71a (Drosophila OR71a; [11]): 0
DF norm AVERAGE OR71a (Drosophila OR71a; [12]): 0.07441

CCCCCC(O)CC (stereo not shown) [3-octanol]
activation at 1 µM (Drosophila OR49b; [1]): 0%
activation at 10 µM (Drosophila OR49b; [2]): 7%
activation at 100 µM (Drosophila OR49b; [3]): 5.5%
Average response (Drosophila OR49b; [4]): 0.00
Average response (Drosophila OR49b; [5]): 0.07
Average response (Drosophila OR49b; [6]): 0.055
activation at 1 µM (Drosophila OR71a): 0%
activation at 10 µM (Drosophila OR71a): 0%
activation at 100 µM (Drosophila OR71a): 0%
Average response (Drosophila OR71a; OR71a cell line, cc. 1 µM): 0.0215
Average response (Drosophila OR71a; OR71a cell line, cc. 10 µM): 0.00
Average response (Drosophila OR71a; OR71a cell line, cc. 100 µM): 0.00
DF norm AVERAGE OR71a (Drosophila OR71a; [10]): 0
DF norm AVERAGE OR71a (Drosophila OR71a; [11]): 0
DF norm AVERAGE OR71a (Drosophila OR71a; [12]): 0

CCCCCCCCC(CO)CCCCCC (stereo not shown) [2-hexyl-1-decanol]
activation at 1 µM (Drosophila OR49b; [1]): 0%
activation at 10 µM (Drosophila OR49b; [2]): 0%
activation at 100 µM (Drosophila OR49b; [3]): 8.56%
Average response (Drosophila OR49b; [4]): 0.00
Average response (Drosophila OR49b; [5]): 0.00
Average response (Drosophila OR49b; [6]): 0.0856
activation at 1 µM (Drosophila OR71a): 0%
activation at 10 µM (Drosophila OR71a): 0%
activation at 100 µM (Drosophila OR71a): 0%
Average response (Drosophila OR71a; OR71a cell line, cc. 1 µM): 0.00
Average response (Drosophila OR71a; OR71a cell line, cc. 10 µM): 0.00
Average response (Drosophila OR71a; OR71a cell line, cc. 100 µM): 0.00
DF norm AVERAGE OR71a (Drosophila OR71a; [10]): 0
DF norm AVERAGE OR71a (Drosophila OR71a; [11]): 0
DF norm AVERAGE OR71a (Drosophila OR71a; [12]): 0
